In brackets after ≈: the same amount, converted by molar mass. Read-outs that look alike come from different tables or passages of the source.
Key:
[1] = biological target: Clostridium difficile DNA gyrase (Clostridioides difficile, UniProt Q18C89); test: DNA supercoiling inhibition assay; format: biochemical; settings: supercoiling of relaxed pBR322 DNA, 60 minutes at 37° C.
Description: DNA supercoiling assays (30 μL reaction) were performed in a buffer containing 15 mM Tris-HCl pH 7.5, 13% glycerol, 6 mM MgCl2, 0.1 mg/mL BSA, 70 mM KCl, 1 mM dithioerythritol, 400 ng of DNA substrate (relaxed pBR322 DNA) and different concentrations of test compounds and/or standards. The dilutions of test compounds and standards were prepared in 20% dimethylsulfoxide (DMSO) and added 3 μL/reaction. The reaction was started by adding 2 μL amounts of Clostridium difficile DNA gyrase into the reaction mixtures and reactions were allowed to proceed for 60 minutes at 37° C. A reaction was carried out by adding 3 μL of 20% DMSO instead of test compound as full reaction control, and another reaction was carried out by adding sterile water instead of the enzyme as no reaction control.
Reactions were stopped by the addition of 5 μL of 6×loading dye and were analyzed by electrophoresis through 1.0% agarose gels with 1×TAE running buffer. Gels were run at 60 V for 3 hours, stained with EtBr, and visualized by Gel Doc system (BioRad). Intensity of the supercoiled DNA bands was quantified, and the IC50 of Clostridium difficile DNA gyrase was calculated using Graph Pad Prism.

S. aureus ATCC 29213 = test: Susceptibility of bacteria, broth microdilution MIC; format: cell-based; settings: Staphylococcus aureus, ATCC29213
Description: The antibacterial activity of the compounds of the present invention was tested by the broth microdilution method. The assay was carried out according to the CLSI guidelines for managing the procedures of susceptibility tests: “M7-A7 Methods for Dilution Antimicrobial Susceptibility Tests for Bacteria That Grow Aerobically; Approved Standard-Seventh Edition (2006)”. Test strains were grown on appropriate agar plates overnight. A broth containing the test compound diluted serially 2-fold and diluents were dispensed at 100 μL to each well of a 96-well microplate. As a growth control, a well with a broth not containing the test compound was also prepared. Colonies grown on the plates were suspended in saline, adjusted to 0.5 McFarland (OD625=0.08 to 0.10) using a colorimeter, and then diluted 10-fold with saline. The bacterial suspension was inoculated at 4 μL into each well of the microplate using a bacterial suspension inoculation apparatus. The inoculated microplate was incubated at 35° C. overnight (about 20 hours). The growth condition was observed by the naked eye, and the minimum concentration to inhibit bacterial proliferation was defined as a minimum inhibitory concentration (MIC). The MICs of compounds disclosed herein for E. faecium, Streptococcus pneumoniae and Haemophilus influenzae are shown in Table 2, while for S. aureus in Table 3.

[2] = test system: Clostridium difficile ATCC 43255; test: Susceptibility of Clostridium difficile, agar dilution MIC; format: cell-based; settings: Clostridioides difficile, ATCC43255, anaerobic
Description: The antibacterial activity of the compounds of the present invention against Clostridium difficile clinical isolates was tested by the agar dilution method. The assay was carried out according to the CLSI guidelines for managing the procedures of susceptibility tests “M11-A8, Methods for Antimicrobial Susceptibility Testing of Anaerobic Bacteria; Approved Standard-Eighth Edition. CLSI document (2012)”.
The test strains were spread on supplemented Brucella agar (SBA) plates and grown at 36° C. under anaerobic condition for 42 to 48 hours. The test compound dilutions were prepared with Brucella broth and SBA plates containing dilution of test compound were prepared. As an anaerobic growth control, plates not containing the test compound were also prepared. Colonies grown on plates were suspended with Brucella broth to adjust the turbidity to 0.5 McFarland using a densitometer. Suspension (1-2 μL) of the test strains was inoculated onto each agar surface by using a bacterial suspension inoculation apparatus. After anaerobic incubation at 36° C. for 42 to 48 hours, absence and presence of growth of each strain were examined with unaided eye. The MIC was determined at which a marked reduction occurs in the appearance of growth on the test plate as compared to that of growth on the anaerobic control plates.

[3] = Solubility in water (JP1 / JP2 fluids); format: physicochemical; settings: thermodynamic from solid
Description: A 10 mmol/L solution of the test compound was prepared in DMSO and dispensed 100 μL of 10 mmol/L DMSO stock solutions into labeled glass tubes in duplicate, one for Japanese Pharmacopeia First Fluid (JP1) and second for Japanese Pharmacopeia Second Fluid (JP2). After evaporation of DMSO from each tube, 500 μL of JP1 and JP2 fluid were added in each tube, respectively. These tubes were sonicated for 1 minute and placed on shaker for 30 minutes with an interval of 30 seconds at every 5 minute. Tubes were placed in dark at room temperature for 1 hour and solution was filtered through membrane filter. The filtrate was diluted 2-fold and 10-fold. The resulting test solutions was analyzed and quantified against the standards using UPLC (standard preparation—10 mmol/L solution in DMSO is serially diluted with 50% aqueous acetonitrile solution to prepare 2 solutions; 100 μmol/L standard solution and 5 μmol/L standard solutions).

[4] = test system: Clostridium difficile 2009155, a NAP1/027 strain; test: Hamster CDI model; format: in vivo; settings: 0.3 mg/kg/day by oral route, 5 days
Description: The in vivo efficacy of test compounds were evaluated in a hamster CDI model caused by Clostridium difficile 2009155, a NAP1/027 strain. Syrine hamsters (6-8-weeks old) were primed with a single subcutaneous injection of clindamycin (30 mg/kg) 1-5 days prior to infection. Hamsters were infected by oral gavage with 1 ml of spore suspension ([…]) prepared in PBS. The drug was administered to the hamsters 6 hours post infection by oral or subcutaneous route at an interval of 24 hours for 5 days. The death and survival of the non-treated group and the drug-administered group were recorded once daily for 35 days.

P. acnes ATCC 6523 = test: Susceptibility of P. acnes, agar dilution MIC; format: cell-based; settings: Cutibacterium acnes, ATCC6523, anaerobic
Description: (§1) The antibacterial activity of the compounds of the present invention against P. acnes clinical isolates was tested by the agar dilution method. The assay was carried out according to the CLSI guidelines document (Clinical and Laboratory Standards Institute, 2012 & 2016). The test strains were spread on supplemented Brucella agar (SBA) plates and grown for 42 to 48 hours at 36° C. under anaerobic condition. The test compound dilutions were prepared with Brucella broth and SBA plates containing dilution of test compound were prepared. As an anaerobic growth control and to check the aerobic contamination, plates not containing the test compound were also prepared. Colonies grown on plates were suspended with Brucella broth to adjust the turbidity to 0.5 McFarland using a densitometer. Suspension (1-2 μL) of the test strains was inoculated onto each agar surface by using a bacterial suspension inoculation apparatus (multipoint inoculator). After anaerobic incubation for 42 to 48 hours at 36° C., absence and presence of growth of each strain on growth control plates and test compounds plate were examined with unaided eye. The MIC was determined at which a marked reduction occurs in the appearance of growth on the test plate as compared to that of growth on the anaerobic control plates.

P. acnes ATCC 6921 = test: Susceptibility of P. acnes, agar dilution MIC; format: cell-based; settings: Cutibacterium acnes, ATCC6921, anaerobic
Description: as §1

P. acnes IHMA 103740 = test: Susceptibility of P. acnes, agar dilution MIC; format: cell-based; settings: Cutibacterium acnes, IHMA103740, anaerobic
Description: as §1

P. acnes IHMA 775486 = test: Susceptibility of P. acnes, agar dilution MIC; format: cell-based; settings: Cutibacterium acnes, IHMA775486, anaerobic
Description: as §1

[5] = test system: N. gonorrhoeae clinical isolates; test: Susceptibility of N. gonorrhoeae, agar dilution MIC; format: cell-based
Description: The antibacterial activity of the compounds of the present invention against N. gonorrhoeae clinical isolates was tested by the agar dilution method [Clinical and Laboratory Standards Institute, 2016]. The test strains were spread on chocolate agar plates and grown for 20-24 h at 36° C. in 5% carbon dioxide. The test compound dilutions were prepared with broth and agar MIC plates were prepared using GC agar base supplemented with haemoglobin and 1% IsoVitaleX plates. As growth control plates not containing the test compound were also prepared. Colonies grown on plates were suspended with broth to adjust the turbidity to 0.5 McFarland using a densitometer. Suspension (1-2 μL) of the test strains was inoculated onto each agar surface by using a bacterial suspension inoculation apparatus (multipoint inoculator). After aerobic incubation for 20-24 h at 36° C. in 5% carbon dioxide, absence and presence of growth of each strain on growth control plates and test compounds plate were examined with unaided eye. The MIC was determined at which a marked reduction occurs in the appearance of growth on the test plate as compared to that of growth on the aerobic control plates.

[6] = Animal infection models (background statement); settings: in vivo
[7] = Solubility for oral absorption (background statement); format: physicochemical; settings: compared to compounds disclosed in this patent application

Clostridium difficile DNA gyrase, sequence (Q18C90 entry or part of it): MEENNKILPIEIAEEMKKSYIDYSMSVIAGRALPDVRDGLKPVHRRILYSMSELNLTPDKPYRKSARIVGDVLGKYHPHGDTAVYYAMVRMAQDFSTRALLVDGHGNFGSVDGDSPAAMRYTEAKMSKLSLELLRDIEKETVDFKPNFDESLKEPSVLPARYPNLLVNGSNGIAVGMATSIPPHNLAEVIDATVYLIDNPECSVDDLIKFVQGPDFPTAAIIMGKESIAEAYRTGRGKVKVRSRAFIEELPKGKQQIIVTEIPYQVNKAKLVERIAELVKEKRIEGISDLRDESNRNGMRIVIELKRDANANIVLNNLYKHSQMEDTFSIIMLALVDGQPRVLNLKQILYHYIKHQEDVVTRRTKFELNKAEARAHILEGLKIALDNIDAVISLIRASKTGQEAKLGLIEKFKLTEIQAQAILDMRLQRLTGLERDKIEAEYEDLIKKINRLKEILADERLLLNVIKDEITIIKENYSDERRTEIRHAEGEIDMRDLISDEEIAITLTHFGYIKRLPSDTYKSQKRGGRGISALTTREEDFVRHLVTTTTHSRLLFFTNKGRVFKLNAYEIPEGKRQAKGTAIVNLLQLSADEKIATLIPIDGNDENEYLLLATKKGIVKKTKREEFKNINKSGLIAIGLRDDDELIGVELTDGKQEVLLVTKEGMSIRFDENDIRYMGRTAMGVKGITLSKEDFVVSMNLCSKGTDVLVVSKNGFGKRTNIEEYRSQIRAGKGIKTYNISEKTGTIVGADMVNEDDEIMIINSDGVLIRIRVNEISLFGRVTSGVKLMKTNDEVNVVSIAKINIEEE
Clostridium difficile DNA gyrase, sequence (Q18C89 entry or part of it): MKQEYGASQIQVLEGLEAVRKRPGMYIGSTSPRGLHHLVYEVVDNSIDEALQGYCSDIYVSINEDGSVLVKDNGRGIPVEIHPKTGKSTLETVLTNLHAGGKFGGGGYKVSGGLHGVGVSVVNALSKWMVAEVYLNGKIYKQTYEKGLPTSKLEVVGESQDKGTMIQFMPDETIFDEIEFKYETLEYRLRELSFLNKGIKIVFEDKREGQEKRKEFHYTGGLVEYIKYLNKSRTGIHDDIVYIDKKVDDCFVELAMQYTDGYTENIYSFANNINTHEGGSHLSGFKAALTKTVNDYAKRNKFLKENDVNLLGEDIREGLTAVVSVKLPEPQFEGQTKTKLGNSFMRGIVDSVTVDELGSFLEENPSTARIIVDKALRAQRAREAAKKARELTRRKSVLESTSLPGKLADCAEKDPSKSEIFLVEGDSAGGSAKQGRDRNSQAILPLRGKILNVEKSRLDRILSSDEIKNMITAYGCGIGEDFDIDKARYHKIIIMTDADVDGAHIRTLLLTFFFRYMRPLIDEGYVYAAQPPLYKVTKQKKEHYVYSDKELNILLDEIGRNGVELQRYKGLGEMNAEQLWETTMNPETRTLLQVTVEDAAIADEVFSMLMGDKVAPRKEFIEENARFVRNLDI

CCc1[nH]c(C(=O)N[C@@H]2CCN(c3nnc(C(C)(O)CO)s3)C[C@@H]2OC)nc1Cl (stereo in doubt) [Compound No. 10, 4-Chloro-N-[(3S,4R)-1-{5-[(2R)-1,2-dihydroxypropan-2-yl]-1,3,4-thiadiazol-2-yl}-3-methoxypiperidin-4-yl]-5-ethyl-1H-imidazole-2-carboxamide]
IC50 [1]: 60.7 nM
MIC (S. aureus ATCC 29213): 1 µg/mL (≈ 2.25 µM)
MIC [2]: 0.06 µg/mL (≈ 0.135 µM)
solubility at 30 min ([3]; Japanese Pharmacopeia First Fluid (JP1), pH 1.2, simulated gastric fluid, read-out: Solubility JP1): 887 µg/mL (≈ 1990 µM)
solubility at 30 min ([3]; Japanese Pharmacopeia Second Fluid (JP2), pH 6.8, aqueous buffer, read-out: Solubility JP2): 429 µg/mL (≈ 964 µM)
survival on day 35 [4]: 100%
MIC (P. acnes ATCC 6523): 0.125 µg/mL (≈ 0.281 µM)
MIC (P. acnes ATCC 6921): 0.125 µg/mL (≈ 0.281 µM)
MIC (P. acnes IHMA 103740): 0.125 µg/mL (≈ 0.281 µM)
MIC (P. acnes IHMA 775486): 0.125 µg/mL (≈ 0.281 µM)
MIC [5]: 0.125 µg/mL (≈ 0.281 µM)

CCO[C@H]1CN(c2nncs2)CC[C@H]1NC(=O)c1nc(Cl)c(CC)[nH]1 [Compound No. 150]
efficacy in animal infection models [6]: not being efficacious
solubility [7]: low

From patent US10399968B2, “Hydroxyalkyl thiadiazole derivatives” (Daiichi Sankyo Company, Limited, priority 2015, dated 2019)
